Test results: US12454510B2, “Isophthalamide compound and use thereof” (METISA BIOTECHNOLOGY CO., LTD, priority 2019, dated 2025)
Like-named read-outs stand apart in the source and are kept apart here.

Assays:
Assay type in all cases: in vivo
Plutella xylostella = test: Insecticidal activity against Plutella xylostella, airbrush spray on cabbage leaf discs; conditions: foliar, 72 h; for pest or weed control at 5 µg/mL: 5 mg/L, Table 5, read-out: Lethality rate (%, 3 days after the treatment) 5 mg/L
Method: (§1) After being dissolved in a mixed solvent of acetone/methanol (1:1), the test compound was diluted with water containing 0.1% (wt) Tween 80 to the desired concentration.
(§2) With Leucania separata, Plutella xylostella, and Chilo suppressalis as targets, airbrush spray method was used for the determination of the insecticidal activity.
(§3) Determination method: Cabbage leaves were punched into leaf discs with a diameter of 2 cm with a puncher, and Airbrush spray treatment was carried out at a pressure of 10 psi (approximately 0.7 kg/cm^2) on the front and back sides of each leaf disc, with a spray volume of the compound to be tested of 0.5 ml. After drying in the shade, 10 of 3rd instar larvae were introduced for each treatment, and each treatment was repeated 3 times for. After the treatment, it was placed in an observation room at 25° C. and a relative humidity of 60-70%, and 3 days after the treatment, the number of surviving insects was investigated, and the mortality rate was calculated.

Leucania separata = test: Insecticidal activity against Leucania separata, airbrush spray on corn leaf sections; conditions: Mythimna separata, 72 h; dose 0.05 mg/L, 3 days after the treatment, 3rd instar larvae; read-out: lethality rate against Leucania separata
Method: as §1, §2
as §3, with “Corn” for “Cabbage”, “cut” for “punched”, “into” for “into leaf discs with a diameter of”, “leaf sections,” for “with a puncher,”, “section,” for “disc,”, “times.” for “times for.”

Chilo suppressalis = test: Insecticidal activity against Chilo suppressalis, sprayed Oryza sativa seedlings/stalks; conditions: for pest or weed control at 0.25 µg/mL / pest or weed control at 0.5 µg/mL / pest or weed control at 1 µg/mL: Chilo suppressalis, 72 h, 3 days after the treatment, 3rd instar larvae, read-out: lethality rate against Chilo suppressalis; for pest or weed control at 0.25 µg/mL: dose 0.25 mg/L; for pest or weed control at 0.5 µg/mL: dose 0.5 mg/L; for pest or weed control at 1 µg/mL: dose 1 mg/L
Method: as §1, §2
Determination method: 1) Preparation of Oryza sativa seedlings: Oryza sativa was cultivated in a constant temperature room (a temperature of 26-28V, a relative humidity of about 60-80%, and a light illumination of 16 hL:8 hD) in a small plastic cup with a diameter of 4.5 cm and a height of 4 cm, and when the Oryza sativa grew up to the 4-5 leaf stage, robust and consistent Oryza sativa seedlings were selected for chemical treatment, and 3 repetitions were performed for each treatment. 2) Preparation for test insects: Chilo suppressalis at 3rd instar larvae were raised continuously indoors. 3) The Oryza sativa stems were sprayed and insects were introduced. Spraying was performed uniformly on the whole plant of the Oryza sativa seedlings, with 15 ml of compound solution for each treatment. The blank control was treated first, and then the above operations were repeated in the order of the test concentration from low to high. After the Oryza sativa seedlings were sprayed, they were placed in a cool place to dry the liquid, and about 5 cm of stalks at the base of the stems were cut and fed to the test insects. A glass petri dish with a diameter of 90 mm was placed with filter paper at the bottom of the dish, and then was moisturized by adding water. After that, about 5 rice stalks and 10 larvae were placed in each dish, and the petri dish was sealed with a non-woven fabric and placed in a constant temperature room for cultivation. The number of remaining live insects was investigated 3 days after the treatment.

[1] = dose 0.05 mg/L, 3 days after the treatment, 3rd instar larvae, read-out: lethality rate against Plutella xylostella
[2] = dose 0.5 mg/L, 3 days after the treatment, 3rd instar larvae, read-out: lethality rate against Plutella xylostella
[3] = dose 1 mg/L, 3 days after the treatment, 3rd instar larvae, read-out: lethality rate against Plutella xylostella
[4] = 0.05 mg/L, parallel comparison test, Table 5, read-out: Lethality rate (%, 3 days after the treatment) 0.05 mg/L
[5] = 0.5 mg/L, parallel comparison test, Table 5, read-out: Lethality rate (%, 3 days after the treatment) 0.5 mg/L
[6] = 1 mg/L, parallel comparison test, Table 5, read-out: Lethality rate (%, 3 days after the treatment) 1 mg/L

Compound	pest or weed control at 0.05 µg/mL (Plutella xylostella; [1]) [%]	pest or weed control at 0.5 µg/mL (Plutella xylostella; [2]) [%]	pest or weed control at 1 µg/mL (Plutella xylostella; [3]) [%]	pest or weed control at 0.05 µg/mL (Leucania separata) [%]	pest or weed control at 0.25 µg/mL (Chilo suppressalis) [%]	pest or weed control at 0.5 µg/mL (Chilo suppressalis) [%]	pest or weed control at 1 µg/mL (Chilo suppressalis) [%]	pest or weed control at 0.05 µg/mL (Plutella xylostella; [4]) [%]	pest or weed control at 0.5 µg/mL (Plutella xylostella; [5]) [%]	pest or weed control at 1 µg/mL (Plutella xylostella; [6]) [%]	pest or weed control at 5 µg/mL (Plutella xylostella; parallel comparison test) [%]	Lethality rate (%, 3 days after the treatment) 0.5 mg/L (Chilo suppressalis; 0.5 mg/L, parallel comparison test, Table 6) [%]	Lethality rate (%, 3 days after the treatment) 1 mg/L (Chilo suppressalis; 1 mg/L, parallel comparison test, Table 6) [%]	Lethality rate (%, 3 days after the treatment) 10 mg/L (Chilo suppressalis; 10 mg/L, parallel comparison test, Table 6) [%]
N#CCCCCN(C(=O)c1ccc(F)nc1)c1cccc(C(=O)Nc2c(Br)cc(C(F)(C(F)(F)F)C(F)(F)F)cc2C(F)(F)F)c1F [Compound 12]	≥ 90	≥ 90	≥ 90	≥ 90	≥ 90	≥ 90	≥ 90							
N#CCN(C(=O)c1ccc(C(F)(F)F)nc1)c1cccc(C(=O)Nc2c(Br)cc(C(F)(C(F)(F)F)C(F)(F)F)cc2C(F)(F)F)c1F [Compound 25]		≥ 90	≥ 90	≥ 90	≥ 90	≥ 90	≥ 90							
N#CCCCCN(C(=O)c1ccc(F)nc1)c1cccc(C(=O)Nc2c(I)cc(C(F)(C(F)(F)F)C(F)(F)F)cc2C(F)(F)F)c1F [Compound 16]	≥ 90	≥ 90	≥ 90	≥ 90	≥ 90	≥ 90	≥ 90							
N#CCCCCN(C(=O)c1ccc(C(F)(F)F)nc1)c1cccc(C(=O)Nc2c(I)cc(C(F)(C(F)(F)F)C(F)(F)F)cc2C(F)(F)F)c1F [Compound 32]		≥ 90	≥ 90	≥ 90		≥ 90	≥ 90							
N#CCN(C(=O)c1ccc(C(F)(F)F)nc1)c1cccc(C(=O)Nc2c(I)cc(C(F)(C(F)(F)F)C(F)(F)F)cc2C(F)(F)F)c1F [Compound 29]		≥ 90	≥ 90	≥ 90	≥ 90	≥ 90	≥ 90							
N#CCCN(C(=O)c1ccc(F)nc1)c1cccc(C(=O)Nc2c(Br)cc(C(F)(C(F)(F)F)C(F)(F)F)cc2I)c1F [Compound 6]			≥ 90	≥ 90			≥ 90							
N#CCCN(C(=O)c1ccc(F)nc1)c1cccc(C(=O)Nc2c(I)cc(C(F)(C(F)(F)F)C(F)(F)F)cc2C(F)(F)F)c1F [Compound 14]	≥ 90	≥ 90	≥ 90	≥ 90	≥ 90	≥ 90	≥ 90							
N#CCCCN(C(=O)c1ccc(F)nc1)c1cccc(C(=O)Nc2c(I)cc(C(F)(C(F)(F)F)C(F)(F)F)cc2C(F)(F)F)c1F [Compound 15]	≥ 90	≥ 90	≥ 90	≥ 90	≥ 90	≥ 90	≥ 90							
N#CCCN(C(=O)c1ccc(F)nc1)c1cccc(C(=O)Nc2c(Br)cc(C(F)(C(F)(F)F)C(F)(F)F)cc2Br)c1F [Compound 2]			≥ 90	≥ 90			≥ 90	43.3	86.7	100	100	86.67	100	100
N#CCN(C(=O)c1ccc(F)nc1)c1cccc(C(=O)Nc2c(Br)cc(C(F)(C(F)(F)F)C(F)(F)F)cc2Br)c1F [Compound 1]			≥ 90	≥ 90			≥ 90							
N#CCCCCN(C(=O)c1ccc(F)nc1)c1cccc(C(=O)Nc2c(Br)cc(C(F)(C(F)(F)F)C(F)(F)F)cc2Br)c1F [Compound 4]			≥ 90	≥ 90			≥ 90							
N#CCN(C(=O)c1ccc(F)nc1)c1cccc(C(=O)Nc2c(I)cc(C(F)(C(F)(F)F)C(F)(F)F)cc2C(F)(F)F)c1F [Compound 13]	≥ 90	≥ 90	≥ 90	≥ 90	≥ 90	≥ 90	≥ 90							
N#CCCN(C(=O)c1ccc(C(F)(F)F)nc1)c1cccc(C(=O)Nc2c(Br)cc(C(F)(C(F)(F)F)C(F)(F)F)cc2C(F)(F)F)c1F [Compound 26]		≥ 90	≥ 90	≥ 90	≥ 90	≥ 90	≥ 90	73.3	96.7	100	100			
